US11998665B2, “Biodegradable ureteral stents, methods and uses thereof” (ASSOCIATION FOR THE ADVANCEMENT OF TISSUE ENGINEERING AND …, priority 2016, dated 2024)
Converted amounts (≈) assume the structure as drawn. Read-outs that look alike come from different tables or passages of the source.

Experiments:
[1] = system: HUVEC cells (human umbilical vein endothelial cells); experiment: MTT cell viability, free anti-cancer drugs, IC50 determination in HUVEC cells; format: cell-based
Protocol: (§1) In an embodiment, the present disclosure used a human urothelial carcinoma cell line, T24 (ATCC, U.S.A.) as a cancer cell line to model the urothelial carcinoma and human umbilical vein endothelial cells, HUVEC, (ATCC, U.S.A.) as a control, non-cancerous cell line. The T24 cell line and HUVEC cells were cultured in RPMI-1640 and EGM™-2 medium, respectively, with (10% fetal bovine serum (FBS), 1 mM L-glutamine and 1% penicillin/streptomyocin), Cells were maintained at 37° C. in a humidified 5% CO2 atmosphere.
(§2) In an embodiment, in vitro efficacy of anti-cancer drugs against T24 cells and HUVEC cells-IC50 determination. The cytotoxicity of paclitaxel, epirubicin, doxorubicin and gemcitabine was evaluated by determining the viability of T24 and HUVEC cells after exposure to medium containing the free drug at a range of concentrations from 0.01 to 2000 ng/ml. Free drugs in medium were prepared by first dissolving the anticancer drugs in DMSO (50 mg/ml) and this solution was then diluted in culture medium to achieve the desired concentration. A standard MTT cell proliferation assay (CellTiter 96® Aqueous One Solution Cell Proliferation Assay) was used to test cell viability and was performed on both cell lines to determine the half maximal inhibitory concentration (1050) of each drug. 5000 cells per well were seeded in a 96-well plate with 100 μl medium for T24 and HUVEC cells. After incubation for 24 h, the medium in each well was aspirated off and the cells were exposed to 100 μl of fresh medium containing the drugs at various concentrations for 4 h and 72 h. The cells after 4 h treatment were further cultured for 72 h in fresh (drug-free) medium. After that, the culture medium in each well was replaced by 100 μl of medium and 20 μl of CellTiter 96® AQueous One Solution Reagent, followed by 4 h incubation at 37° C. A latex rubber extract was used as negative control for cell death; while cell culture medium was used as positive control. Cell viability was quantified by UV-spectroscopy, reading the formazan absorbance at 490 nm in a microplate reader (SpectraMax i3, Molecular Devices, USA). Each sample formulation and control was tested using 12 replicates.
(§3) In an embodiment, the 1050 was determined from the fitting of the curve of cell viability, measured by MTT and the drug concentration. The fitting was performed using GraphPad software (GraphPad Prism 6.00 software, San Diego, USA).
(§4) In an embodiment, the effect of the anti-cancer drugs (IC50) when in contact with T24 and HUVEC cells was investigated by a cell viability test, namely the MTT assay. From this, the IC50 was calculated for each of the four drugs in each of the two cell lines. In this case, IC50 is a measure of the concentration needed to inhibit cell survival, and is routinely used to specify the in vitro potency of a drug (Sebaugh, 2011). The T24 cell line was chosen as a muscle invasive urothelial cancer and the HUVEC cells were used as non-cancerous control cells. The cytotoxicity evaluation was carried out either after 4 h or 72 h of exposure of the cells to the free drugs at different concentrations (FIGS. 5 A and B). […] In FIGS. 5 (A and B) it is possible to see, for both cell types the trend of concentration-dependent cytotoxicity. These are similar, in all cases and as it would be expected the 72 h exposure present a higher killing efficacy. Comparing the results between the two cells it is possible to conclude that the cancer cells are much more sensitive to the anti-cancer drugs compared with the HUVEC cells.

[2] = system: T24 cells (human urothelial carcinoma cell line); experiment: MTT cell viability, free anti-cancer drugs, IC50 determination in T24 cells; format: cell-based
Protocol: as §1, §2, §3, §4

[3] = Quantity of drug impregnated in stents by scCO2 (UV-spectroscopy after degradation in AUS); format: physicochemical; details: for Quantity of drug impregnated by scCO2: 90 min, 100 bar, 40° C.; for increase in the impregnation yield when ethanol was used as a co-solvent: DrugEtOH versus pure scCO2; for % loaded: amount of drug impregnated by scCO2 in BUS
Protocol: In an embodiment, a supercritical CO2 impregnation of anti-cancer drugs was performed, in the biodegradable ureteral stents (BUS) of the present disclosure. The were biodegradable ureteral stents prepared were placed in high-pressure vessel with anti-cancer drugs (10 mg) according to FIG. 2. The anti-cancer drugs were impregnated in the stents with and without the presence of a co-solvent. The scCO2 impregnation conditions used were 100 bar at 40° C. and 90 min. Carbon dioxide was liquefied and pumped to the desired pressure using a membrane pump (MCPV-71, Haskel, Germany). Impregnation took place in batch mode for 90 min followed by fast depressurization of the system. When a co-solvent was employed, 10% (v/v) ethanol was used. A commercial non-degradable ureteral stent (Biosoft® duo, Porges, Coloplast) was impregnated with same drugs at the same conditions with co-solvent, to be used as a control. To enhance the mechanical properties of the stent a PCL coating was applied. To evaluate the effect of coating on the release of the drugs the condition BUS+Co-Solvent was prepared twice and one of this batches was coated with PCL resin.
The anticancer drugs impregnation yield (I) was calculated from Eq. (1): I(%)=mdrug/mstent+mdrug×100 Eq. (1) where mstent is the polymer mass at the beginning of the process and the mdrug is the mass of the respective anticancer drug released after complete degradation of the stents in AUS. Anti-cancer drugs concentration was calculated from a calibration curve prepared from standard solutions. The samples were analyzed by UV-spectroscopy using a microplate reader (SpectraMax i3, Molecular Devices, USA) at the maximum absorbance for each drug (227 nm for PA, 254 nm for EP and DOX and 268 nm for GEM). All the experiments were performed in triplicate.
In an embodiment, impregnation efficiency of anti-cancer drugs in the biodegradable ureteral stents (BUS) was determined as a function of mass (μg) of anti-cancer drugs per mass (mg) of the polymer. In the DrugEtOH conditions, the amount of anti-cancer drug impregnated in the stents is higher, as it would be expected due to the co-solvent effect of ethanol in the enhancement of drug the solubility in CO2. The amount of impregnated paclitaxel in pure scCO2 (PAbio) was 0.046 μg mg-1, whereas those in PAEtOH condition was […] (0.067 μg mg-1). A similar percentage was reported by Yoda et al. (Yoda et al., 2011) in which the authors report the impregnation of paclitaxel in an amorphous poly(DL-lactic acid) (PDLLA) matrix. The amount of paclitaxel impregnated by Yoda et al. in PDLLA was 2-3 times higher compared with the alginate/gelatin matrix obtained in this work. This can be justified by the higher affinity of the drug-CO2 solution in the hydrophobic PDLLA matrix (Kazarian, 2000). Furthermore, PDLLA may also have greater swelling in the presence of scCO2 than the alginate/gelatin polymer blend (Cooper, 2000; Yoda et al., 2011). […] In the case of the Biosoft® duo, Porges, Coloplast stents the amount of drug impregnated is 6-times lower compared with BUS impregnated with paclitaxel under the same conditions. The lower amount of drug impregnated can be related with lower swelling ability of the polymeric matrix of the commercial stent in scCO2 and/or by lower affinity of the drugs with composition material of the Biosoft® duo, Porges, Coloplast stent.

T24 cancer cells = details: cited from earlier work
[4] = 4 h exposure then 72 h in drug-free medium
[5] = T-24, 4 h exposure then 72 h in drug-free medium
[6] = DrugCom: commercial non-degradable stent with co-solvent
[7] = DrugETOH: BUS + 10% ethanol co-solvent
[8] = Drugbio: BUS without co-solvent

| IC50 [2, 5] [µg/mL] | IC50 ([2]; T-24, 72 h exposure) [µg/mL] | Quantity of drug impregnated by scCO2 [3, 6] [μgdrug/mgpolymer] | Quantity of drug impregnated by scCO2 [3, 7] [μgdrug/mgpolymer] | increase in the impregnation yield when ethanol was used as a co-solvent [3] [%] | Quantity of drug impregnated by scCO2 [3, 8] [μgdrug/mgpolymer] | Quantity of drug impregnated by scCO2 ([3]; DrugETOH: BUS + 10% ethanol co-solvent, listed as gemcitabine) [μgdrug/mgpolymer] | % loaded [3] [%] | SMILES | IC50 [1, 4] [µg/mL] | IC50 ([1]; 72 h exposure) [µg/mL] | IC50 (T24 cancer cells; doxorubicin, T24 cancer cells, Lu et al., 2015a) [µg/mL] | IC50 (T24 cancer cells; doxorubicin, T24 cancer cells, Yu et al., 2015) [µg/mL] | IC50 (T24 cancer cells; paclitaxel, Hadaschik et al., 2008) [µg/mL] |
| --- | --- | --- | --- | --- | --- | --- | --- | --- | --- | --- | --- | --- | --- |
| 187 ± 5.18 (≈ 344 µM) | 29.3 ± 10 (≈ 53.9 µM) | 0.208 | 3.748 | 12 | 3.297 |  |  | COc1cccc2c1C(=O)c1c(O)c3c(c(O)c1C2=O)C[C@@](O)(C(=O)CO)C[C@@H]3O[C@H]1C[C@H](N)[C@H](O)[C@H](C)O1 [Doxorubicin, doxorubicin] | 2150 ± 58.2 (≈ 3950 µM) | 647 ± 21.4 (≈ 1190 µM) | 0.0116 (≈ 0.0213 µM) | 4 (≈ 7.36 µM) |  |
| 67 ± 2.34 (≈ 123 µM) | 15.7 ± 1.02 (≈ 29 µM) | 0.118 | 1.779 | 15 | 1.498 |  |  | COc1cccc2c1C(=O)c1c(O)c3c(c(O)c1C2=O)C[C@@](O)(C(=O)CO)C[C@@H]3O[C@H]1C[C@H](N)[C@@H](O)[C@H](C)O1 [Epirubicin, epirubicin] | 2050 ± 33.2 (≈ 3770 µM) | 139 ± 13.6 (≈ 256 µM) |  |  |  |
| 99 ± 1.29 (≈ 376 µM) | 0.89 ± 0.27 (≈ 3.38 µM) | 2.312 | 19.572 | 8 | 18.183 | 19.57 | 2 | Nc1ccn([C@@H]2O[C@H](CO)[C@@H](O)C2(F)F)c(=O)n1 [Gemcitabine, gemcitabine] | 413.6 ± 2.68 (≈ 1570 µM) | 237 ± 16.7 (≈ 901 µM) |  |  |  |
| 0.282 (≈ 0.33 µM) | 0.0073 (≈ 0.00855 µM) | 0.014 | 0.067 |  | 0.046 |  | 0.01 | CC(=O)O[C@H]1C(=O)[C@@]2(C)[C@H]([C@H](OC(=O)c3ccccc3)[C@]3(O)C[C@H](OC(=O)[C@H](O)[C@@H](NC(=O)c4ccccc4)c4ccccc4)C(C)=C1C3(C)C)[C@]1(OC(C)=O)CO[C@@H]1C[C@@H]2O [Paclitaxel, paclitaxel] | 0.85 (≈ 0.995 µM) | 0.502 (≈ 0.587 µM) |  |  | 0.00285 (≈ 0.00334 µM) |
